Literature values, collected in patent publication US6921840B1 (The Trustees of the University of Pennsylvania, priority 1999, dated 2005).

What was measured:
[1] = target: DAT (Rattus norvegicus, UniProt P23977); settings: taken from Ferris et al. 1995; read-out: IC50 for inhibition on substrate uptake, DAT; cited from earlier work
[2] = target: T1, serotonin uptake (SERT) (Rattus norvegicus, UniProt P31652); settings: taken from Ferris et al. 1995; read-out: IC50 for inhibition on substrate uptake, SERT; cited from earlier work
T1 construct: host or cells: rat brain synaptosomes

[3] = target: T2, norepinephrine uptake (NET) (Rattus norvegicus, UniProt Q63380); settings: cited from earlier work
T2 construct: host or cells: rat brain synaptosomes
T2 sequence (Q63380 1-617): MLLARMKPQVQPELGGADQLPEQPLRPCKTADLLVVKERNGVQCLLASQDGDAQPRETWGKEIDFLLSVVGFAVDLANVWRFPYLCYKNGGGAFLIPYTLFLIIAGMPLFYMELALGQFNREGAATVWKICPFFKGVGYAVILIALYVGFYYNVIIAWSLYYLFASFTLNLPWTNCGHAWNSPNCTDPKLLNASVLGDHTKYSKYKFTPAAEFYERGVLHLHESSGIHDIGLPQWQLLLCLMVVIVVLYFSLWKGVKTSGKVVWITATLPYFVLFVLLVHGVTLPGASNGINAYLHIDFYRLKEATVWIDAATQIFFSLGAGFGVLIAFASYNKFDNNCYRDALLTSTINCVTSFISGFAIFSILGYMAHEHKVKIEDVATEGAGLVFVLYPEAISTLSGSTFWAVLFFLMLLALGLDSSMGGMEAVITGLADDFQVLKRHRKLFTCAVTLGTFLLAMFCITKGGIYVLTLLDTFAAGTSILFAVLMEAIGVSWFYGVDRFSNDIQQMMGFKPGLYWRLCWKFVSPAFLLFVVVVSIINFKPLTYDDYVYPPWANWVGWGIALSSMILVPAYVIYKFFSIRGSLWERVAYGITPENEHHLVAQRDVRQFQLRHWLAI

T1 sequence (P31652 whole entry): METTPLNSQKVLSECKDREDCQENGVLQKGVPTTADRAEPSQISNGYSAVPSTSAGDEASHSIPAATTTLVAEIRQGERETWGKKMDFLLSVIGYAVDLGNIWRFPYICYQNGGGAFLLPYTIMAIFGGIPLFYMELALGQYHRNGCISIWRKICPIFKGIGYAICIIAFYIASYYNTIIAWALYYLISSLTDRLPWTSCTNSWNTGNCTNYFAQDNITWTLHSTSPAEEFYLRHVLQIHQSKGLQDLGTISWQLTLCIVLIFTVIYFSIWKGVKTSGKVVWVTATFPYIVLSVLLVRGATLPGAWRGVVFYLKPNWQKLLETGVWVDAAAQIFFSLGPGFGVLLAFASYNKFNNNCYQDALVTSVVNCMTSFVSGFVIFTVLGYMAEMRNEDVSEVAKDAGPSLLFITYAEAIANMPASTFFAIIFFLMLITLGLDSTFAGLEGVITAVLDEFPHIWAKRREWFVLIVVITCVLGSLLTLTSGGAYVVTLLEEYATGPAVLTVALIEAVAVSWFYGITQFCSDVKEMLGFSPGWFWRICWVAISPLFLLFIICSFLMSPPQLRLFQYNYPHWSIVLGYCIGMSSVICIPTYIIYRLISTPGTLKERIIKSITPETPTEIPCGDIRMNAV
Chain of DAT (P23977 whole entry): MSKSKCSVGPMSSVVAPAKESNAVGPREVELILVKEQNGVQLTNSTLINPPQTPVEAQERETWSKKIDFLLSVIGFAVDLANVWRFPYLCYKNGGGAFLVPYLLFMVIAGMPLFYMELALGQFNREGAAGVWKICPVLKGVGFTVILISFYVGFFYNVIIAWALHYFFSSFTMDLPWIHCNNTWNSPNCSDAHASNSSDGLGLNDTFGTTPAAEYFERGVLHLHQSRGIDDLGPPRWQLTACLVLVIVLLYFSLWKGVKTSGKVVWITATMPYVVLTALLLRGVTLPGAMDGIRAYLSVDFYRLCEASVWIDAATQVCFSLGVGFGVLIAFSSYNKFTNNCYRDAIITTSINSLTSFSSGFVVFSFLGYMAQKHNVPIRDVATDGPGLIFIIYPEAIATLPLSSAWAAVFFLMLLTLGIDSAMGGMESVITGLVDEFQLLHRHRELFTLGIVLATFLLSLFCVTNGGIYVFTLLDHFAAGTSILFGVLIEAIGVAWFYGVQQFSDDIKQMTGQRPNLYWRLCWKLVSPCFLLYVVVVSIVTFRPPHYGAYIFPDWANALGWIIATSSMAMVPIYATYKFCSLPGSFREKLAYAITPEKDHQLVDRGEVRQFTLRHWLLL

SMILES: CN(C)Cc1ccccc1Sc1ccc(Cl)cc1CO [403U76, 5-chloro-2-((2-((dimethyl-amino)methyl)phenyl)thio)benzyl alcohol]
- IC50 [1]: > 1000 nM
- IC50 [2]: 2.1 ± 0.4 nM
- Ki ([3]; rat brain synaptosomes): 55 nM
- IC50 ([3]; taken from Ferris et al. 1995, read-out: IC50 for inhibition on substrate uptake, NET): 55 ± 10 nM
